Here are results for ten compounds from patent US20240376097A1, “BCL-2 Inhibitor” (BeiGene Ltd., priority 2020, published 2024).

The test system of assay [1] is BCL-2 G101V knock-in cell line H96 (derive from RS4;11). Kind of assay: Bcl 2-G101V Knock-In RS4;11 Cell Proliferation Assay. Type of assay: cell-based. The note with it: Homo sapiens, RS4;11 Bcl-2 G101V knock-in clone H96, 48 hrs, CellTiter-GLO, read-out: Cellular proliferation assay (IC50, nM) RS4. The method, boiled down:
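H96, a CRISPR-generated RS4;11 clone carrying BCL2-G101V knock-in (WES/RNA-seq validated), seeded 50,000 per well and exposed 48 h at 37 °C to 10-point dilutions topping at 1 or 10 μM. Viability by CellTiter-Glo luminescence; mean IC50.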
Background: In ATP-based viability assays light output follows the ATP content of the culture.

Assay [2] deals with RS4;11 (BCL-2 dependent acute lymphoblastic leukemia cell line). Kind of assay: RS4;11 Cell Proliferation Assay. Type of assay: cell-based. Particulars: Homo sapiens, RS4-11, RS4;11 cells, read-out: Cellular proliferation assay (IC50, nM) RS4. The method, boiled down:
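RS4;11 cells, 50,000 per well in RPMI-1640 with 10% FBS, treated 48 h at 37 °C with a 10-point dilution series topping at 1 μM. Viability read by CellTiter-Glo ATP luminescence; mean IC50 reported.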

Assay [3] deals with recombinant human Bcl-2-G101V protein. Kind of assay: Bcl-2-G101V TR-FRET Assay. Type of assay: binding. The note with it: ratio of biochemical IC50 Bcl-2 G101V / Bcl-2 WT. A digest of the protocol:
(§1)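 Compounds were titrated at increasing concentrations against the Bcl-2-G101V–ligand interaction. TR-FRET signals were then read (ex 337 nm; em 490/520 nm). Percent inhibition was derived from the 490-to-520 nm ratio, and IC50 from a four-parameter logistic equation.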
In general terms: In TR-FRET formats the signal depends on donor and acceptor labels being close together.

The target in assay [4] is recombinant human Bcl-2-G101V protein (Homo sapiens (Human), UniProt P10415, G101V). The experiment in a line: Bcl-2-G101V TR-FRET Assay. Type of assay: binding. Particulars: Bcl-2 G101V mutant, TR-FRET; read-out: Biochemical assay (IC50, nM) Bcl-2 G101V. The method, boiled down:
as §1

For assay [5], the target named is Recombinant human Bcl-2 protein (Homo sapiens (Human), UniProt P10415). The experiment in a line: Bcl-2 TR-FRET Assay. Type of assay: binding. The note with it: Bcl-2 wild type, TR-FRET; read-out: Biochemical assay (IC50, nM) Bcl-2 WT. The method, boiled down:
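0.05 nM Bcl-2 pre-incubated 0.5 h at room temperature with 10-point compound dilutions (top final 1, 0.1, 0.02 or 0.01 uM) in 20 mM potassium phosphate pH 7.5, 50 mM NaCl, 1 mM EDTA, 0.05% Tween-20, 0.01% BSA; FITC-Bak peptide (0.5 nM) and anti-6His Tb cryptate added, 1 h. IC50 from four-parameter logistic fit.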

In the case of `COc1cc(CN2CCN(C3CC4(C3)CN(c3ccc(C(=O)NS(=O)(=O)c5ccc(NC[C@H]6CC[C@](C)(O)CC6)c([N+](=O)[O-])c5)c(Oc5cnc6[nH]ccc6c5)c3)C4)[C@H](c3ccccc3C(C)C)C2)ccc1C(C)C` [Example 270, 2-((1H-pyrrolo[2,3-b]pyridin-5-yl)oxy)-N-((4-((((1r,4r)-4-hydroxy-4-methylcyclohexyl)methyl)amino)-3-nitrophenyl)sulfonyl)-4-(6-((R)-4-(4-isopropyl-3-methoxybenzyl)-2-(2-isopropylphenyl)piperazin-1-yl)-2-azaspiro[3.3]heptan-2-yl) benzamide], the IC50 was 0.64 nM in assay [1], 0.16 nM in assay [2], 2.9 nM in assay [4] and 1.1 nM in assay [5]. Besides, the “Ratio of Bcl-2 G101V/WT” value in assay [3] is 2.6.
In the same order, the values of `CCc1ccc(CN2CCN(C3CC4(C3)CN(c3ccc(C(=O)NS(=O)(=O)c5ccc(NC[C@H]6CC[C@](C)(O)CC6)c([N+](=O)[O-])c5)c(Oc5cnc6[nH]ccc6c5)c3)C4)[C@H](c3ccccc3C(C)C)C2)cc1OC` [Example 271, 2-((1H-pyrrolo[2,3-b]pyridin-5-yl)oxy)-4-(6-((R)-4-(4-ethyl-3-methoxybenzyl)-2-(2-isopropylphenyl)piperazin-1-yl)-2-azaspiro[3.3]heptan-2-yl)-N-((4-((((1r,4r)-4-hydroxy-4-methylcyclohexyl)methyl)amino)-3-nitrophenyl)sulfonyl)benzamide] are 0.4 nM, 0.11 nM, 1.5 nM, 0.47 nM and 3.1.
Consider `COc1cc(CN2CCN(C3CC4(CCN(c5ccc(C(=O)NS(=O)(=O)c6ccc(NC[C@H]7CC[C@](C)(O)CC7)c([N+](=O)[O-])c6)c(Oc6cnc7[nH]ccc7c6)c5)CC4)C3)[C@H](c3ccccc3C(C)C)C2)ccc1C(F)(F)F` [Example 277, 2-((1H-pyrrolo[2,3-b]pyridin-5-yl)oxy)-N-((4-((((1r,4r)-4-hydroxy-4-methylcyclohexyl)methyl)amino)-3-nitrophenyl)sulfonyl)-4-(2-((R)-2-(2-isopropylphenyl)-4-(3-methoxy-4-(trifluoromethyl)benzyl)piperazin-1-yl)-7azaspiro [3.5]nonan-7-yl)benzamide], for which the IC50 in assay [1] turned out to be 1.9 nM; in assay [2], 0.22 nM; in assay [4] it was 3.2 nM; in assay [5], 1.4 nM. The “Ratio of Bcl-2 G101V/WT” value in assay [3] amounted to 2.2.
In the same order, the values of `COc1cc(CN2CCN(C3CC4(CCN(c5ccc(C(=O)NS(=O)(=O)c6ccc(NC[C@H]7CC[C@](C)(O)CC7)c([N+](=O)[O-])c6)c(Oc6cnc7[nH]cc(F)c7c6)c5)CC4)C3)[C@H](c3ccccc3C(C)C)C2)ccc1C(F)F` [Example 287] are 0.55 nM, 0.16 nM, 2.3 nM, 0.87 nM and 2.6.
In the case of `COc1cc(CN2CCN(C3CC4(C3)CN(c3ccc(C(=O)NS(=O)(=O)c5ccc(NC[C@H]6CC[C@](C)(O)CC6)c([N+](=O)[O-])c5)c(Oc5cnc6[nH]ccc6c5)c3)C4)[C@H](c3ccccc3C(C)C)C2)ccc1C(F)(F)F` [Example 290, 2-((1H-pyrrolo[2,3-b]pyridin-5-yl)oxy)-N-((4-((((1r,4r)-4-hydroxy-4-methylcyclohexyl)methyl)amino)-3-nitrophenyl)sulfonyl)-4-(6-((R)-2-(2-isopropylphenyl)-4-(3-methoxy-4-(trifluoromethyl)benzyl)piperazin-1-yl)-2-azaspiro [3.3]heptan-2-yl)benzamide], the IC50 in assay [1] worked out at 1.5 nM; in assay [2], 0.2 nM; in assay [4], 2.2 nM; in assay [5], 0.9 nM. The “Ratio of Bcl-2 G101V/WT” value in assay [3] is listed as 2.5.
Turning to `CC(C)c1ccccc1[C@@H]1CN(Cc2ccc3c(c2)OCC3)CCN1C1CC2(C1)CN(c1ccc(C(=O)NS(=O)(=O)c3ccc(NC[C@H]4CC[C@](C)(O)CC4)c([N+](=O)[O-])c3)c(Oc3cnc4[nH]cc(F)c4c3)c1)C2` [Example 297, 4-(6-((R)-4-((2,3-dihydrobenzofuran-6-yl)methyl)-2-(2-isopropylphenyl)piperazin-1-yl)-2-azaspiro[3.3]heptan-2-yl)-2-((3-fluoro-1H-pyrrolo[2,3-b]pyridin-5-yl)oxy)-N-((4-((((1r,4r)-4-hydroxy-4-methylcyclohexyl)methyl)amino)-3-nitrophenyl)sulfonyl)benzamide], the IC50 came out at 1.16 nM in assay [1], 0.25 nM in assay [2], 0.4 nM in assay [4] and 0.13 nM in assay [5]. Further, the “Ratio of Bcl-2 G101V/WT” value in assay [3] stood at 3.0.
In the case of `CC(C)c1ccccc1[C@@H]1CN(Cc2ccc3c(c2)OCC3)CCN1C1CC2(C1)CN(c1ccc(C(=O)NS(=O)(=O)c3ccc(NC[C@H]4CC[C@](C)(O)CC4)c([N+](=O)[O-])c3)c(Oc3cnc4[nH]ccc4c3)c1)C2` [Example 298, 2-((1H-pyrrolo[2,3-b]pyridin-5-yl)oxy)-4-(6-((R)-4-((2,3-dihydrobenzofuran-6-yl)methyl)-2-(2-isopropylphenyl)piperazin-1-yl)-2-azaspiro[3.3]heptan-2-yl)-N-((4-((((1r,4r)-4-hydroxy-4-methylcyclohexyl)methyl)amino)-3-nitrophenyl)sulfonyl)benzamide], the IC50 in assay [1] was determined as 1.82 nM; in assay [2] it was 0.24 nM; in assay [4], 0.45 nM; in assay [5], 0.099 nM. Further, in assay [3], the “Ratio of Bcl-2 G101V/WT” value stood at 4.6.
In the same order, the values of `CC(C)c1ccccc1[C@@H]1CN(Cc2ccc3c(c2)OCC3)CCN1C1CC2(CCN(c3ccc(C(=O)NS(=O)(=O)c4ccc(NC[C@H]5CC[C@](C)(O)CC5)c([N+](=O)[O-])c4)c(Oc4cnc5[nH]cc(F)c5c4)c3)CC2)C1` [Example 305, 4-(2-((R)-4-((2,3-dihydrobenzofuran-6-yl)methyl)-2-(2-isopropylphenyl)piperazin-1-yl)-7-azaspiro[3.5]nonan-7-yl)-2-((3-fluoro-1H-pyrrolo[2,3-b]pyridin-5-yl)oxy)-N-((4-((((1r,4r)-4-hydroxy-4-methylcyclohexyl)methyl)amino)-3-nitrophenyl)sulfonyl) benzamide] are 1.3 nM, 0.32 nM, 0.6 nM, 0.19 nM and 3.2.
On to `CC(C)c1ccccc1[C@@H]1CN(Cc2ccc3c(c2)OCC3(C)C)CCN1C1CC2(CCN(c3ccc(C(=O)NS(=O)(=O)c4ccc(NC[C@H]5CC[C@](C)(O)CC5)c([N+](=O)[O-])c4)c(Oc4cnc5[nH]cc(F)c5c4)c3)CC2)C1` [Example 308, 4-(2-((R)-4-((3,3-dimethyl-2,3-dihydrobenzofuran-6-yl)methyl)-2-(2-isopropylphenyl)piperazin-1-yl)-7-azaspiro[3.5]nonan-7-yl)-2-((3-fluoro-1H-pyrrolo[2,3-b]pyridin-5-yl)oxy)-N-((4-((((1r,4r)-4-hydroxy-4-methylcyclohexyl)methyl)amino)-3-nitrophenyl)sulfonyl)benzamide], for which the IC50 in assay [1] stood at 3.95 nM; in assay [2], 0.58 nM; in assay [4], 3.11 nM; in assay [5], 0.67 nM. For the same compound, the “Ratio of Bcl-2 G101V/WT” value in assay [3] is given as 4.6.
In the same order, the values of `CC(C)c1ccccc1[C@@H]1CN(Cc2ccc3c(c2)OCC3(C)C)CCN1C1CC2(C1)CN(c1ccc(C(=O)NS(=O)(=O)c3ccc(NC[C@H]4CC[C@](C)(O)CC4)c([N+](=O)[O-])c3)c(Oc3cnc4[nH]cc(F)c4c3)c1)C2` [Example 311, 4-(6-((R)-4-((3,3-dimethyl-2,3-dihydrobenzofuran-6-yl)methyl)-2-(2-isopropylphenyl)piperazin-1-yl)-2-azaspiro[3.3]heptan-2-yl)-2-((3-fluoro-1H-pyrrolo[2,3-b]pyridin-5-yl)oxy)-N-((4-((((1r,4r)-4-hydroxy-4-methylcyclohexyl)methyl)amino)-3-nitrophenyl)sulfonyl)benzamide] are 2.3 nM, 0.42 nM, 1.5 nM, 0.43 nM and 3.4.
